Measured values published in patent US7838529B2, “Xanthine derivates, their preparation and their use in pharmaceutical compositions” (Boehringer Ingelheim International GmbH, priority 2002, dated 2010).

System: not listed separately
Experiment: Tolerability after oral administration to rats (behavior)
Assay type: in vivo
Details: 10 mg/kg

Row | Structure (SMILES) | changes in the animals' behavior
1 | CC#CCn1c(N2CCC[C@@H](N)C2)nc2c1c(=O)n(CC(=O)c1ccccc1NC(=O)C1CC1)c(=O)n2C [Example 1 (5), 1-(2-{2-[(cyclopropylcarbonyl)amino]phenyl}-2-oxoethyl)-3-methyl-7-(2-butyn-1-yl)-8-((R)-3-aminopiperidin-1-yl)xanthine] | no changes in the animals' behavior could be detected

Molecular target: T1, DPP-IV (Homo sapiens, UniProt P27487)
T1 construct: an extract of human colon carcinoma cell line Caco-2 is used as the DPP-IV source; endogenous in cells; host or cells: Caco-2 (human colon carcinoma), differentiated to induce DPP-IV expression
T1 sequence (P27487 whole entry): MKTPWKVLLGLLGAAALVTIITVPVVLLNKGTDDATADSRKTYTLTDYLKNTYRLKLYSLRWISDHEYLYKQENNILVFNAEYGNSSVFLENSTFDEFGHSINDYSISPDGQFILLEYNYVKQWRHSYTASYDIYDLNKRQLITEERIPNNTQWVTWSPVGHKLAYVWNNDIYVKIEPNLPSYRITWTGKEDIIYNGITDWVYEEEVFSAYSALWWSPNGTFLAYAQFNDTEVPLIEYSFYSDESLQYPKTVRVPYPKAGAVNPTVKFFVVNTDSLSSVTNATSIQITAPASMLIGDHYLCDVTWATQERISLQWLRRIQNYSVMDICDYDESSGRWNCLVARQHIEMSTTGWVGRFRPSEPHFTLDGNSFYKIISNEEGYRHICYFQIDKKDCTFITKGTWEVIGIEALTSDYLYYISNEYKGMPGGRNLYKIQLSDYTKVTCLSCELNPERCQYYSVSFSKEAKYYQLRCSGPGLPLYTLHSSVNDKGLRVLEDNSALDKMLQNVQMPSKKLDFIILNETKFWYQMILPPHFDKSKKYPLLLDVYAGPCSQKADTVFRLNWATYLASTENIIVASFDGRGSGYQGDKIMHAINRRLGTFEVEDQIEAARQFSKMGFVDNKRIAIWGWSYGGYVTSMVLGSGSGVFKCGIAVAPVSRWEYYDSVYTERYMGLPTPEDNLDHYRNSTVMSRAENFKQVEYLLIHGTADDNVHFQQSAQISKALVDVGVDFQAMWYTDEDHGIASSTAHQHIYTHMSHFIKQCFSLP
Experiment: DPP-IV assay with Caco-2 cell extract as DPP-IV source
Assay type: biochemical
Details: extract of human colon carcinoma cell line Caco-2; AFC substrate 100 μM; 60 minutes at ambient temperature; read-out: DPP-IV inhibition IC50
Experimental: The differentiation of the cells in order to induce the DPP-IV expression was carried out as described by Reiher et al., “Increased Expression of Intestinal Cell Line Caco-2”, Proc. Natl. Acad. Sci. Vol. 90, pages 5757-5761 (1993). The cell extract was obtained from cells solubilized in a buffer (10 mM Tris HCl, 0.15 M NaCl, 0.04 t.i.u. aprotinin, 0.5% Nonidet P-40, pH 8.0) by centrifuging at 35,000 g for 30 minutes at 4° C. (to remove cell debris).
The DPP-IV assay was carried out as follows:
50 μL substrate solution (AFC; AFC is amido-4-trifluoromethylcoumarin), final concentration 100 μM, were placed in black microtitre plates. 20 μL of assay buffer (final concentrations 50 mM Tris HCl pH 7.8, 50 mM NaCl, 1% DMSO) was pipetted in. The reaction was started by adding 30 μL of solubilized Caco-2 protein (final concentration 0.14 μg of protein per well). The test substances to be investigated were typically added prediluted in 20 μL, and the volume of assay buffer was then reduced accordingly. The reaction was carried out at ambient temperature, incubating for 60 minutes. Then the fluorescence was measured in a Victor 1420 Multilabel Counter, the excitation wavelength being 405 nm and the emission wavelength being 535 nm. Blank readings (corresponding to 0% activity) were obtained in mixtures without any Caco-2 protein (volume replaced by assay buffer), control values (corresponding to 100% activity) were obtained in mixtures with no substance added. […]

Row | Structure (SMILES) | IC50
2 | CC#CCn1c(N2CCCC(N)C2)nc2c1c(=O)n(CC(=O)c1ccccc1NC=O)c(=O)n2C (stereo not drawn) [1 (2), 1-[2-(2-formylaminophenyl)-2-oxoethyl]-3-methyl-7-(2-butyn-1-yl)-8-(3-aminopiperidin-1-yl)xanthine] | 3 nM
3 | C/C=C/Cn1c(N2CCCC(N)C2)nc2c1c(=O)n(CC(=O)c1ccccc1NC(=O)c1ccccn1)c(=O)n2C (stereo not drawn) [1 (7), 1-[2-(2-{[(pyridin-2-yl)carbonyl]amino}phenyl)-2-oxoethyl]-3-methyl-7-((E)-2-buten-1-yl)-8-(3-aminopiperidin-1-yl)xanthine] | 8 nM
4 | CC(C)=CCn1c(N2CCCC(N)C2)nc2c1c(=O)n(CC(=O)c1ccccc1NC=O)c(=O)n2C (stereo not drawn) [Example 1, 1-[2-(2-formylaminophenyl)-2-oxoethyl]-3-methyl-7-(3-methyl-2-buten-1-yl)-8-(3-aminopiperidin-1-yl)xanthine] | 5 nM

Now from value to molecule:

Row | IC50 | Structure (SMILES)
5 | 11 nM | CC(C)=CCn1c(N2CCCC(N)C2)nc2c1c(=O)n(CC(=O)c1ccccc1NC(=O)C1CC1)c(=O)n2C (stereo not drawn) [1 (1), 1-(2-{2-[(cyclopropylcarbonyl)amino]phenyl}-2-oxoethyl)-3-methyl-7-(3-methyl-2-buten-1-yl)-8-(3-aminopiperidin-1-yl)xanthine]
6 | 4 nM | C/C=C/Cn1c(N2CCC[C@@H](N)C2)nc2c1c(=O)n(CC(=O)c1ccccc1NC(=O)C1CC1)c(=O)n2C [1 (3), 1-(2-{2-[(cyclopropylcarbonyl)amino]phenyl}-2-oxoethyl)-3-methyl-7-((E)-2-buten-1-yl)-8-((R)-3-aminopiperidin-1-yl)xanthine]
7 | 3 nM | C/C=C/Cn1c(N2CCC[C@H](N)C2)nc2c1c(=O)n(CC(=O)c1ccccc1NC(=O)C1CC1)c(=O)n2C [1 (4), 1-(2-{2-[(cyclopropylcarbonyl)amino]phenyl}-2-oxoethyl)-3-methyl-7-((E)-2-buten-1-yl)-8-((S)-3-aminopiperidin-1-yl)xanthine]
8 | 5 nM | CC#CCn1c(N2CCC[C@H](N)C2)nc2c1c(=O)n(CC(=O)c1ccccc1NC(=O)C1CC1)c(=O)n2C [1 (6), 1-(2-{2-[(cyclopropylcarbonyl)amino]phenyl}-2-oxoethyl)-3-methyl-7-(2-butyn-1-yl)-8-((S)-3-aminopiperidin-1-yl)xanthine]
9 | 3 nM | CC#CCn1c(N2CCC[C@@H](N)C2)nc2c1c(=O)n(CC(=O)c1ccccc1NC(=O)C1CC1)c(=O)n2C [Example 1 (5), 1-(2-{2-[(cyclopropylcarbonyl)amino]phenyl}-2-oxoethyl)-3-methyl-7-(2-butyn-1-yl)-8-((R)-3-aminopiperidin-1-yl)xanthine]
